Patent US20220213092A1, “BICYCLIC PYRAZOLE BRUTON'S TYROSINE KINASE INHIBITORS” (AbbVie Inc., priority 2020, published 2022)
Where two headings read alike, the source gives them in different places.

Target: T1, TXK (Homo sapiens, UniProt P42681)
T1 sequence (P42681 1-527): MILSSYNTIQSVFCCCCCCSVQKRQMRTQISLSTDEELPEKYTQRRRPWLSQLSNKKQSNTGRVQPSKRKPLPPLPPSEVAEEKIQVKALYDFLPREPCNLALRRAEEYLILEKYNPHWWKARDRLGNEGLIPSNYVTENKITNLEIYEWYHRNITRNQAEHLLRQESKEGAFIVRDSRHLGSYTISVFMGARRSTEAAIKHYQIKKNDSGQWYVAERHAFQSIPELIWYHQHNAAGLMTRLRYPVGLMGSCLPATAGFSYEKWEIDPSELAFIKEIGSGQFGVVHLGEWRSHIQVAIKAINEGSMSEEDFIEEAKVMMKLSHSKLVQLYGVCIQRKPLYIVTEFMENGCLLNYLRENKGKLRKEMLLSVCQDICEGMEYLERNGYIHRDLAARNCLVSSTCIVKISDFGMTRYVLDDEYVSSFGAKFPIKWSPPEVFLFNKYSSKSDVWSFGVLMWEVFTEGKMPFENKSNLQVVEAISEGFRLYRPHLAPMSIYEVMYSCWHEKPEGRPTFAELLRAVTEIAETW
Assay: Other kinase MSA: TXK
Assay type: biochemical
Procedure: Kinase activity, unless otherwise indicated, was measured in vitro using an electrophoretic mobility shift assay (MSA). The phosphorylation of a peptide substrate by BTK and other kinases was measured. The kinase reactions were assembled in a total volume of 25 μL per well in 384 well plates. The following was added to each well: compound buffer (or control); enzyme buffer; and substrate buffer, as further described below. […]
Enzyme and compound/inhibitor were optionally pre-incubated. […] The kinase activity for the kinases in Table 3 were measured at 3 hours incubation time, except that in the case of MAP2K1 and MAP2K2 assay, pre-activation of ERK was done for 30 min with 6 μM of ATP, and then the detection of activated ERK in the presence of compounds was done after 60 minutes of incubation.
The terminated reactions were analyzed using a 12 channel LABCHIP® 3000 microfluidic detection instrument (available from Caliper Life Sciences, Waltham, Mass.). […] As substrate and product peptides were separated, two peaks of fluorescence were observed. Change in the relative fluorescence intensity of the substrate and product peaks was the parameter measured, reflecting enzyme activity. […] Capillary electrophoregrams (RDA acquisition files) were analyzed using HTS Well Analyzer software (available from Caliper Life Sciences, Waltham, Mass.). […]

IC50 (100 μM ATP, SRCtide substrate, 3 hours, read-out: IC50, Enzyme TXK) [nM] | IC50 [nM] | Structure (SMILES)
1.9 |  | C=CC(=O)N1CCC([C@@H]2CCNc3c(C(N)=O)c(-c4ccc(Oc5ccccc5)cc4)nn32)CC1 [Compound A, reference compound]
 | 222 | C=CC(=O)N1CCN([C@@H]2CCNc3c2nn(-c2ccc(Oc4ccccc4)cc2)c3C(N)=O)CC1 [Example 6, (7R)-2-(4-phenoxyphenyl)-7-[4-(prop-2-enoyl)piperazin-1-yl]-4,5,6,7-tetrahydro-2H-pyrazolo[4,3-b]pyridine-3-carboxamide]
